Key:
[1] = test system: VDUP1 gene; conditions: human HL-60 cells; cited from earlier work
[2] = test system: VDUP1 promoter; test: Secreted alkaline phosphatase reporter assay, COS cells transiently transfected with VDUP1 promoter constructs, treated with Vitamin D3; assay type: cell-based, monkey; conditions: 200 nM Vitamin D3, all constructs tested, AP reporter
Method: (§1) FIG. 5 is a graph showing secreted alkaline phosphatase (SEAP) activity upon transient transfection of COS cells of various VDUP1 promoter constructs operably linked to an alkaline phosphatase encoding nucleotide sequence, treated or untreated with 200 nM Vitamin D3.
(§2) Four deletion constructs were generated corresponding to 5′ end lengths of 1448bp (SEQ ID NO:1), 1002bp (SEQ ID NO:4), 597bp (SEQ ID NO:3), and 452bp (SEQ ID NO:2) as shown in FIG. 1. In the 452bp (SEQ ID NO:2) construct, the two Sp1 elements are deleted. Each fragment was generated by PCR from the 3.0 kb EcoRI-BamHI subclone, and introduced upstream of the secreted alkaline phosphatase (AP) reporter nucleic acid sequence. Representative clones of each were verified by DNA sequencing. The VDUP1 constructs were then transfected into COS cells and screened for expression in comparison to an SV40 immediate early promoter driven AP construct.

[3] = test system: SV40 immediate early promoter; test: Secreted alkaline phosphatase reporter assay, COS cells transfected with SV40 promoter control construct, treated with vitamin D3; assay type: cell-based; conditions: addition of vitamin D3 (200 nM), AP reporter
Method: as §1, §2

[4] = test system: thioredoxin (TRX); conditions: HL-60 cells treated with vitamin D3; cited from earlier work

Compound | induction of VDUP1 [1] | enhancement of VDUP1 expression [2] | induction of SV40 control [3] | expression of TRX [4]
C[C@@H]1C[C@@H]([C@H](O)CC2CC(=O)NC(=O)C2)C(=O)[C@@H](C)C1 [cyclohexamide] | several fold | – | – | –
C=C1/C(=C\C=C2/CCC[C@]3(C)[C@@H]([C@H](C)CCCC(C)(C)O)CC[C@@H]23)C[C@@H](O)C[C@@H]1O [Vitamin D3, 1,25-dihydroxyvitamin D3] | strongly induced | 25% | not induced | significant decrease
